Data published in patent publication US8338480B2, “Combination treatment of metabolic disorders” (Wellstat Therapeutics Corporation, priority 2006, dated 2012).
Where a name gives a salt, the structure may show the parent alone. Marks after values point to notes of the source that are not given here.

What was measured:
Format in all cases: in vivo
db/db mice [1] = experiment: Serum glucose and triglycerides in db/db mice treated for 4 weeks (Example 2); conditions: for Serum Glucose Mean / Serum Triglycerides Mean: 4 weeks oral gavage once per day
Experimental: (§1) Male db/db mice have a defect in the receptor for the appetite-regulating protein leptin and consequently develop hyperphagia, obesity, insulin resistance, hyperglycemia, hypertriglyceridemia. Male db/db mice are an accepted animal model for Type II diabetes. The effect of a range of single daily doses of orally administered Compound BI was assessed in this model, and the efficacy of rosiglitazone alone and in combination with Compound BI was also examined.
Male C57BL/Ksola db/db mice (“db/db mice”) were obtained from Harlan (Indianapolis, Ind.) and allowed to acclimate for a minimum of one week. […] Male C57BL/6 mice of the same age were used as lean nondiabetic controls.
(§2) Body weights and blood glucose levels were measured and animals were sorted groups of 6-7 mice with equivalent mean body weights in each group. […].
(§3) • 1. Lean Control (no treatment) • 2. Vehicle • 3. Compound BI 30 mg/kg/day • 4. Compound BI 100 mg/kg/day • 5. Compound BI 150 mg/kg/day • 6. Rosiglitazone 3 mg/kg • 7. Rosiglitazone 3 mg/kg+Compound BI 30 mg/kg • 8. Rosiglitazone 3 mg/kg+Compound BI 100 mg/kg • 9. Rosiglitazone 20 mg/kg • 10. Rosiglitazone 20 mg/kg+Compound BI 30 mg/kg • 11. Rosiglitazone 20 mg/kg+Compound BI 100 mg/kg
(§4) Drug preparation: Compound BI was suspended in a vehicle comprising 1% aqueous hydroxypropylmethylcellulose, using a tissue homogenizer to minimize particle size and maximize uniformity of the suspension. Rosiglitazone was suspended in the same vehicle. Drug concentrations in the dosing suspension for each treatment group were adjusted according to body weights so that a constant volume of 0.4 ml provided appropropriate drug doses in all groups.
(§5) Drug Administration: Drugs were administered orally by gavage once per day for 28 days.
Blood sampling: For serum chemistry analysis, nonfasting blood samples (200 microliters) were obtained via the retro-orbital sinus and collected in serum separator tubes at 11 AM on days 14 and 28 after initiation of drug administration.

Male C57B1/6 mice = experiment: Food intake and body weight of male C57Bl/6 mice under restricted feeding (Example 3); conditions: for Post-treatment Food Intake (5 Hour): 5 hour meal; for Change in Body weight % / Change in Body weight (grams ± SEM) / Post-treatment Body weight: restricted feeding
Experimental: Animals. […] Food was withheld for the remainder of each day. Because of the restricted feeding time, the mice eat less than under ad libitum food availability. Therefore, reduction of food intake in this model requires a drug effect sufficient to overcome the hunger stimulus provided by subnormal daily food intake. Drug Administration. Groups of 10 mice each (individually weighed and marked, divided into 5/cage and trained and monitored as above; were dosed once per day with Compound BI (100 mg/kg), rosiglitazone (3 mg/kg), both drugs, or vehicle by oral gavage at 8 AM for four consecutive days. Comparator groups receiving appetite modulators not suitable for oral dosing (PYY and cerulenin) received intraperitoneal injections at 8 AM for four consecutive days. […] [table]

db/db mice [2] = experiment: Body weight and food consumption in db/db mice treated for 4 weeks (Example 2); conditions: for Body Weight (grams) Mean ± SD 4 Weeks / Food Consumption Week 2 / Food Consumption Week 3 / Food Consumption Week 4 / Change in Body Weight (grams): db/db mice; for Change in Body Weight (grams): initial to 4 weeks
Experimental: as §1
Male C57BL/Ksola db/db mice (“db/db mice”) were obtained from Harlan (Indianapolis, Ind.) and allowed to acclimate for a minimum of one week. Animals received Purina 5008 Lab Diet and tap water ad libitum and were housed with 3-4 animals per cage. Male C57BL/6 mice of the same age were used as lean nondiabetic controls.
as §2, §3, §4, §5

[3] = tested on: Gold Thioglucose-obese (GTG) mice; experiment: Body weight and cumulative food intake in gold thioglucose-obese mice (Example 1); conditions: for Δ BW (g) 0-5 Weeks / Body Weight (g ± SEM) Week 1 / Body Weight (g ± SEM) Week 4 / Body Weight (g ± SEM) Week 5: GTG mice; for Cumulative Food Intake / Cumulative Food Intake (grams): per cage of 5 mice
Experimental: Systemic administration of gold thioglucose (GTG) damages glucose-sensing neurons in the hypothalamus, and consequently impairs regulation of satiety, leading to chronic hyperphagia and consequent obesity. Male C57BL/6J mice, weighing 22 to 25 grams received gold thioglucose (Sigma Chemical Company, St. Louis Mo.) by intraperitoneal injection (500 mg/kg). Mice were given a high fat diet (45% Kcal fat; D12451, Research Diets, New Brunswick, N.J.) for 8 weeks to exacerbate obesity.
Mice were then divided into groups comprising 5 mice each, sorted so that each group had similar mean body weights (approximately 47 grams). Mice received single daily oral treatment with Compound BI, rosiglitazone or combinations of the two drugs. A group of lean control mice on a standard low fat rodent chow was also included.
• 1. Vehicle (1% hydroxypropylmethylcellulose) • 2. Compound BI 30 mg/kg • 3. Compound BI 100 mg/kg • 4. Rosiglitazone (RSG) 3 mg/kg • 5. RSG 3 mg/kg+Compound BI 30 mg/kg • 6. RSG 3 mg/kg+Compound BI 100 mg/kg • 7. Lean Control (no treatment)

db/db mice [4] = experiment: Serum glucose in db/db mice, combinations with rosiglitazone or pioglitazone, 4 weeks (Example 5); conditions: 4 weeks oral once per day
Experimental: as §1
Male C57BL/Ksola db/db mice (“db/db mice”) were obtained from Harlan (Indianapolis, Ind.) and allowed to acclimate for a minimum of one week.
as §2
• 12. Vehicle • 13. Compound BI 100 mg/kg/day • 14. Rosiglitazone 3 mg/kg • 15. Rosiglitazone 3 mg/kg+Compound BI 100 mg/kg • 16. Pioglitazone 30 mg/kg • 17. Pioglitazone 30 mg/kg+Compound BI 100 mg/kg • 18. Pioglitazone 100 mg/kg • 19. Pioglitazone 100 mg/kg+Compound BI 100 mg/kg
as §4, with “Pioglitazone and rosiglitazone were” for “Rosiglitazone was”, “vehicle after pulverization of commercial tablets of each of these drugs.” for “vehicle.”
as §5
Blood sampling: For serum chemistry analysis, nonfasting blood samples (200 microliters) were obtained via the retro-orbital sinus and collected in serum separator tubes at 11 AM on day 28 after initiation of drug administration.

[5] = Compound BI 100 mg/kg oral once per day
[6] = Compound BI 30 mg/kg oral daily
[7] = Compound BI 100 mg/kg oral daily
[8] = GTG-obese mice, 5 weeks, Compound BI 30 mg/kg
[9] = GTG-obese mice, 5 weeks, Compound BI 100 mg/kg
[10] = Rosiglitazone 3 mg/kg oral once per day
[11] = GTG-obese mice, 5 weeks, RSG 3 mg/kg

## Cc1cccc(C)c1COc1cccc(C(=O)CCC(=O)O)c1 [Compound BI, 4-(3-(2,6-Dimethylbenzyloxy)phenyl)-4-oxobutyric acid]
db/db mice [1]; Compound BI 30 mg/kg
  Serum Glucose Mean: 657.8 mg/dL
  Serum Triglycerides Mean: 281.2* mg/dL
db/db mice [1]; Compound BI 100 mg/kg
  Serum Glucose Mean: 330.3* mg/dL
  Serum Triglycerides Mean: 179.1* mg/dL
db/db mice [1]; Compound BI 150 mg/kg
  Serum Glucose Mean: 271.7* mg/dL
  Serum Triglycerides Mean: 177.7* mg/dL
db/db mice [1]; combination: rosiglitazone 3 mg/kg/day + Compound BI 30 mg/kg/day
  hyperglycemia, hypertriglyceridemia and free fatty acid levels (in words): dose-dependent attenuation of hyperglycemia, hypertriglyceridemia and free fatty acid levels
db/db mice [1]; oral once per day for 28 days
  serum glucose (in words): dose dependent reduction of serum glucose
Male C57B1/6 mice; [5]
  Post-treatment Food Intake (5 Hour): 2.00 ± 0.18 grams
  Change in Body weight %: −1.90 ± 0.73%
  Change in Body weight (grams ± SEM): −0.40 ± 0.15 grams
  Post-treatment Body weight: 20.57 ± 0.51 grams
db/db mice [2]; Compound BI 30 mg/kg, RSG 3 mg/kg, alone or combined
  body weight and food intake (in words): little effect on body weight and food intake
db/db mice [2]; 4 Weeks oral once per day, Compound BI 30 mg/kg
  Body Weight (grams) Mean ± SD 4 Weeks: 50.3 ± 2.1 grams
db/db mice [2]; 4 Weeks oral once per day, Compound BI 150 mg/kg
  Body Weight (grams) Mean ± SD 4 Weeks: 47.4 ± 2.7 grams
db/db mice [2]; 4 weeks oral once per day, Compound BI 100 mg/kg
  Body Weight (grams) Mean ± SD 4 Weeks: 47.8 ± 3.6 grams
db/db mice [2]; Compound BI 30 mg/kg
  Food Consumption Week 2: 5.3 grams/24 hr/mouse
  Food Consumption Week 3: 4.9 grams/24 hr/mouse
  Food Consumption Week 4: 5.6 grams/24 hr/mouse
  Change in Body Weight (grams): +8.4 grams
db/db mice [2]; Compound BI 100 mg/kg
  Food Consumption Week 2: 3.6 grams/24 hr/mouse
  Food Consumption Week 3: 3.7 grams/24 hr/mouse
  Food Consumption Week 4: 5.1 grams/24 hr/mouse
  Change in Body Weight (grams): +6.3 grams
db/db mice [2]; Compound BI 150 mg/kg
  Food Consumption Week 2: 3.1 grams/24 hr/mouse
  Food Consumption Week 3: 4.1 grams/24 hr/mouse
  Food Consumption Week 4: 6 grams/24 hr/mouse
  Change in Body Weight (grams): +6.6 grams
[3]; [6]
  Δ BW (g) 0-5 Weeks: -9.8 ± 0.2 g
  Body Weight (g ± SEM) Week 1: 39.8 ± 0.9 g
  Body Weight (g ± SEM) Week 4: 40.0 ± 1.1 g
  Body Weight (g ± SEM) Week 5: 37.4 ± 0.9 g
[3]; [7]
  Δ BW (g) 0-5 Weeks: -14.6 ± 0.3 g
  Body Weight (g ± SEM) Week 1: 38.4 ± 1.1 g
  Body Weight (g ± SEM) Week 4: 34.0 ± 1.0 g
  Body Weight (g ± SEM) Week 5: 33.0 ± 1.1 g
[3]; GTG-obese mice, 5 weeks
  total food and calorie consumption (in words): reduced total food and calorie consumption
[3]; [8]
  Cumulative Food Intake: 1048 kcal
  Cumulative Food Intake (grams): 223 grams
[3]; [9]
  Cumulative Food Intake: 902 kcal
  Cumulative Food Intake (grams): 192 grams
[3]; GTG-obese mice, over the course of 5 weeks
  body weight (in words): decrease in body weight
db/db mice [4]; Compound BI 100 mg/kg
  Serum Glucose (mg/dL) Mean ± SD: 376 ± 151 mg/dL

## CN(CCOc1ccc(CC2SC(=O)NC2=O)cc1)c1ccccn1 (centres unmarked) [RSG, rosiglitazone maleate, reference compound]
db/db mice [1]; RSG 3 mg/kg
  Serum Glucose Mean: 382.8 mg/dL
  Serum Triglycerides Mean: 99.2* mg/dL
db/db mice [1]; RSG 20 mg/kg
  Serum Glucose Mean: 344.7 mg/dL
  Serum Triglycerides Mean: 117.3* mg/dL
Male C57B1/6 mice; [10]
  Post-treatment Food Intake (5 Hour): 2.21 ± 0.15 grams
  Change in Body weight %: −0.55 ± 0.44%
  Change in Body weight (grams ± SEM): −0.12 ± 0.09 grams
  Post-treatment Body weight: 20.76 ± 0.39 grams
db/db mice [2]; 4 Weeks oral once per day, RSG 20 mg/kg
  Body Weight (grams) Mean ± SD 4 Weeks: 51.4 ± 1.4 grams
db/db mice [2]; 4 weeks oral once per day, RSG 3 mg/kg
  Body Weight (grams) Mean ± SD 4 Weeks: 48.2 ± 2.6 grams
db/db mice [2]; RSG 3 mg/kg
  Food Consumption Week 2: 5.3 grams/24 hr/mouse
  Food Consumption Week 3: 4.0 grams/24 hr/mouse
  Food Consumption Week 4: 4.8 grams/24 hr/mouse
  Change in Body Weight (grams): +6.4 grams
db/db mice [2]; RSG 20 mg/kg
  Food Consumption Week 2: 5.4 grams/24 hr/mouse
  Food Consumption Week 3: 5.9 grams/24 hr/mouse
  Food Consumption Week 4: 6.3 grams/24 hr/mouse
  Change in Body Weight (grams): +10.3 grams
[3]; RSG 3 mg/kg oral daily
  Δ BW (g) 0-5 Weeks: -1.2 ± 0.2 g
  Body Weight (g ± SEM) Week 1: 47.0 ± 1.0 g
  Body Weight (g ± SEM) Week 4: 46.0 ± 1.1 g
  Body Weight (g ± SEM) Week 5: 46.3 ± 1.0 g
[3]; [11]
  Cumulative Food Intake: 1293 kcal
  Cumulative Food Intake (grams): 275 grams
db/db mice [4]; RSG 3 mg/kg
  Serum Glucose (mg/dL) Mean ± SD: 432 ± 138 mg/dL
